# Experimental data from patent EP4818192A1, “USE OF GRP78-LIKE PEPTIDES” (priority 2023, dated 2026).
# Ends that are not written are not given here.
# Tested on: periodontal ligament cells (rPDL)
row,cell permeability,Sequence
1,high cell permeability,MVLTKMKETAEAYLGKKVTH [SEQ ID NO: 3]
2,high cell permeability,"MEHFIKLYKKKTGKDVRK [SEQ ID NO: 4, MEHFIKLYKKKTGKDVRK]"
3,high cell permeability,"TFAPEEISAMVLTK [SEQ ID NO: 1, TFAPEEISAMVLTK]"
